tested on: rat-derived basophils (RBL-2H3); assay: β-Hexosaminidase release-inhibition assay; type: cell-based; details: antigen (DNP-BSA)-stimulated RBL-2H3; FIG. 7, FIG. 8
Experimental: The assay principle of the β-hexosaminidase release assay is as follows:
β-hexosaminidase is a glycolytic enzyme, and is one of the lysosome enzymes occurring abundantly in granules of mast cells.
In the β-hexosaminidase release assay, p-nitrophenyl phosphate is separated due to the presence of this enzyme. The separated p-nitrophenyl phosphate is determined by a photometric method (405 nm), and the result is set as the β-hexosaminidase enzyme activity.
The effect of inhibiting β-hexosaminidase release was evaluated using the anti-allergic effect test that uses as an index β-hexosaminidase released from the rat-derived basophils (RBL-2H3).
RBL-2H3 cells were cultured (5% carbon dioxide, 37° C.) in an Eagle minimum essential medium containing 10% fetal calf serum (FCS), 100 units/mL penicillin and 100 μg/mL streptomycin. Then, the cells were plated to a 24-well flat-bottomed microplate for cell culture at 2.5×10^5 cells/well ([…] medium/well). By culturing for 24 hours (5% carbon dioxide, 37° C.), the cells were sensitized. The sensitized cells were then washed once in 500 μl of PBF, and 160 μl of the siraganian buffer containing 5.6 mM glucose, 1 mM calcium chloride and 0.1% BSA was added. A sample solution at each concentration and 20 μl of the test substance solution (DMSO: 0.1%) were added, and ten minutes later the antigen (DNP-BSA: 10 μg/mL) was added and incubated for 10 minutes to stimulate the cells. After stopping the reaction by cooling with ice for 10 minutes, 50 μl of the supernatant was transferred to a 96-well flat-bottomed microtiter plate, to which 100 μl of the enzyme reaction was added and mixed. After determining absorbance of the mixture by a microplate reader, the release ratio was determined by the following equation (measurement wavelength: 405 nm, reference wavelength: 655 nm). β-hexosaminidase release ratio (%)=[amount of β-hexosaminidase released by stimulation/amount of total intracellular β-hexosaminidase]×100
Total intracellular β-hexosaminidase was determined using the supernatant obtained by centrifuging the cells disrupted by an ultrasonic disruption instrument.

Compound | Effect of inhibiting β-hexosaminidase release
CC[C@H](/C=C/[C@@H](C)[C@H]1CCC2[C@@H]3CCC4=CC(=O)CC[C@]4(C)C3CC[C@@]21C)C(C)C (stereo partly shown) [stigmasta-4,22-dien-3-one] | roughly confirmed
CC[C@H](CC[C@@H](C)[C@H]1CC[C@H]2[C@@H]3CC(=O)C4=CC(=O)CC[C@]4(C)[C@H]3CC[C@]12C)C(C)C [stigmast-4-ene-3,6-dione] | roughly confirmed
c1ccc2c(c1)[I+]c1ccccc1-2 [DPI, reference compound] | inhibited, in a concentration-dependent manner
CC[C@H](CC[C@@H](C)[C@H]1CCC2[C@@H]3CCC4=CC(=O)CC[C@]4(C)C3CC[C@@]21C)C(C)C (stereo partly shown) [stigmast-4-en-3-one] | roughly confirmed

Reference: patent publication US7431953B2, “Skin preparation for external use containing Purpuricenus temminckii frass as the active ingredient” (Nihon University, priority 2002, dated 2008)
